Data from article PMC6272327, “Discovery of Metal Ions Chelator Quercetin Derivatives with Potent Anti-HCV Activities” (Molecules, 2015).
Like-named read-outs stand apart in the source and are kept apart here.

Legend:
[1] = Cell viability / cytotoxicity by MTT method; format: cell-based; details: human
Protocol: (§1) The inhibition of HCV by all synthesized quercetin derivatives was evaluated following a previously reported procedure. All newly synthesized compounds were tested in authentic HCV infection/replication system in the human hepatoma cell lines Huh7.5.1 using mycophenolic acid (MPA) as control compound. The cytotoxicity effect of the test compounds was also evaluated in the same cell line by MTT method. Antiviral effect and cytotoxicity effect were summarized as EC50 and CC50 respectively, as well as the selective index (SI) which is the ratio of CC50 to EC50. The stability of quercetin-3-O-ester compounds were also tested in the same buffer as the antiviral activity assay at 37 °C and the hydrolysate was measured by HPLC.
After the EGFP signal was read, cell viability was measured in the same plate by the MTT [3-(4,5-dimethylthiazol-2-yl)-2,5-diphenyltetrazolium bromide; Sigma-Aldrich, St. Louis, MO, USA] method. Briefly, MTT (1 mg/mL) was dissolved in PBS. Cell culture supernatants were removed and replaced with MTT and further cultured for 4 h; cells were then lysed with 10% sodium dodecyl sulfate (SDS), 50% N,N-dimethylformamide, pH 7.2. OD570 values were read. The percentage of cell death was calculated against the control well without compounds.

[2] = tested on: HCV infectious virus J399EM; test: Anti-HCV assay in authentic HCV infection/replication system (J399EM EGFP reporter virus) in Huh7.5.1 cells; format: cell-based, hepatitis C virus (JFH1-derived, genotype 2a); details: for EC50: Hepatitis C virus, Huh-7.5.1, 72 h; for SI (selectivity index): ratio of CC50 to EC50, Huh7.5.1 cells
Protocol: as §1
The biological assays were performed following a previously reported procedure. The Huh7.5.1 cell line and the HCV infectious virus J399EM were kindly provided by Xin-Wen Chen, Wuhan Institute of Virology, Chinese Academy of Sciences. Huh7.5.1 cells were cultured in Dulbecco’s modified Eagle’s medium (DMEM) containing 10% (v/v) fetal bovine serum, 0.5 mg/mL G418, 100 IU/mL penicillin, and […].
J399EM is an infectious HCV virus derived from the JFH1 virus (genotype 2a) by insertion of enhanced green fluorescent protein (EGFP) into the HCV NS5A region. The establishment of the infectious J399EM HCV virus has been described previously. J399EM was propagated in Huh7.5.1 cells. Briefly, Huh7.5.1 cells were infected with J399EM at MOI = 0.1 and cultured for 4 days. Culture supernatant was collected and filtered through a 0.45 μm membrane and stored at −80 °C as virus stock. Virus titer was tested in Huh7.5.1 cells. Stocks were serially diluted, and the foci forming units (FFU) were determined as the number of fluorescent colonies formed in infected Huh7.5.1.
All the compounds were first dissolved in DMSO at 50 mM, and then diluted to various concentrations (50 μM, 25 μM, 12.5 μM, 6.3 μM and 3.1 μM). Approximately 1 × 10^4 Huh7.5.1 cells per well were plated in an opaque 96-well tissue culture plate (Costar 3904). The next day, the medium was replaced by J399EM virus at an MOI of 0.3. Four hours later, the virus inoculum was removed and medium containing different concentrations of compounds was added. After an additional 72 h of incubation, the culture medium was removed and the EGFP autofluorescence was measured by using a […] with excitation at 488 nm and emission at 516 nm. Compounds and controls were performed in duplicate and each experiment repeated independently at least twice.

| Structure (SMILES) | CC50 [1] [µM] | EC50 [2] [µM] | SI (selectivity index) [2] | melting point [°C] | CC50 ([1]; Huh7.5.1 cells, MTT, concentration required to reduce cell proliferation by 50%, average of duplicate determinations, read-out: CC50) [µM] |
| --- | --- | --- | --- | --- | --- |
| O=c1c(O)c(-c2ccc(O)c(O)c2)oc2cc(OCc3ccccc3)cc(O)c12 [Compound 3a, 7-(Benzyloxy)-2-(3,4-dihydroxyphenyl)-3,5-dihydroxy-4H-chromen-4-one] | > 50 | 8.7 ± 0.2 | >5.8 | 255 to 257 |  |
| O=c1c(O)c(-c2ccc(O)c(O)c2)oc2cc(OCc3ccccc3F)cc(O)c12 [Compound 3b, 2-(3,4-Dihydroxyphenyl)-7-((2-fluorobenzyl)oxy)-3,5-dihydroxy-4H-chromen-4-one] | 15.4 ± 0.1 | 5 ± 0.1 | 3.1 | 254 to 255 |  |
| O=c1c(O)c(-c2ccc(O)c(O)c2)oc2cc(OCc3ccccc3Cl)cc(O)c12 [Compound 3c, 7-((2-Chlorobenzyl)oxy)-2-(3,4-dihydroxyphenyl)-3,5-dihydroxy-4H-chromen-4-one] | 36.7 ± 0.7 | 4.8 ± 0.1 | 7.7 | 253 to 254 |  |
| O=c1c(O)c(-c2ccc(O)c(O)c2)oc2cc(OCc3ccccc3Br)cc(O)c12 [Compound 3d, 7-((2-Bromobenzyl)oxy)-2-(3,4-dihydroxyphenyl)-3,5-dihydroxy-4H-chromen-4-one] | 37.4 ± 0.8 | 5.5 ± 0.2 | 6.8 | 248 to 249 |  |
| Cc1ccccc1COc1cc(O)c2c(=O)c(O)c(-c3ccc(O)c(O)c3)oc2c1 [Compound 3e, 2-(3,4-Dihydroxyphenyl)-3,5-dihydroxy-7-((2-methylbenzyl)oxy)-4H-chromen-4-one] | 21.7 ± 1.4 | 4.9 ± 0.6 | 4.4 | 241 to 242 |  |
| N#Cc1ccccc1COc1cc(O)c2c(=O)c(O)c(-c3ccc(O)c(O)c3)oc2c1 [Compound 3f, 2-(((2-(3,4-Dihydroxyphenyl)-3,5-dihydroxy-4-oxo-4H-chromen-7-yl)oxy)methyl)benzonitrile] | 12.6 ± 0.1 | 7.5 ± 0.5 | 1.7 | 248 to 249 |  |
| O=c1c(O)c(-c2ccc(O)c(O)c2)oc2cc(OCc3ccccc3[N+](=O)[O-])cc(O)c12 [Compound 3g, 2-(3,4-Dihydroxyphenyl)-3,5-dihydroxy-7-((2-nitrobenzyl)oxy)-4H-chromen-4-one] | 14.6 ± 0.5 | 7 ± 1.1 | 2.1 | 260 to 261 |  |
| O=c1c(O)c(-c2ccc(O)c(O)c2)oc2cc(OCc3cccc(F)c3)cc(O)c12 [Compound 3h, 2-(3,4-Dihydroxyphenyl)-7-((3-fluorobenzyl)oxy)-3,5-dihydroxy-4H-chromen-4-one] | 44.5 ± 3.7 | 6.3 ± 0.2 |  | 243 to 245 |  |
| O=c1c(O)c(-c2ccc(O)c(O)c2)oc2cc(OCc3cccc(Cl)c3)cc(O)c12 [Compound 3i, 7-((3-Chlorobenzyl)oxy)-2-(3,4-dihydroxyphenyl)-3,5-dihydroxy-4H-chromen-4-one] | 27.2 ± 0.2 | 3.8 ± 0.2 | 7.2 | 260 to 261 |  |
| O=c1c(O)c(-c2ccc(O)c(O)c2)oc2cc(OCc3cccc(Br)c3)cc(O)c12 [Compound 3j, 7-((3-Bromobenzyl)oxy)-2-(3,4-dihydroxyphenyl)-3,5-dihydroxy-4H-chromen-4-one] | 22.3 ± 1.2 | 4.1 ± 0.3 | 5.4 | 234 to 236 |  |
| Cc1cccc(COc2cc(O)c3c(=O)c(O)c(-c4ccc(O)c(O)c4)oc3c2)c1 [Compound 3k, 2-(3,4-Dihydroxyphenyl)-3,5-dihydroxy-7-((3-methylbenzyl)oxy)-4H-chromen-4-one] | 32.5 ± 0.7 | 4.7 ± 0.4 | 6.9 | 224 to 226 |  |
| N#Cc1cccc(COc2cc(O)c3c(=O)c(O)c(-c4ccc(O)c(O)c4)oc3c2)c1 [Compound 3l, 3-(((2-(3,4-Dihydroxyphenyl)-3,5-dihydroxy-4-oxo-4H-chromen-7-yl)oxy)methyl)benzonitrile] |  | 5.4 ± 0.5 | 2.0 |  | 10.6 ± 0.5 |
| O=c1c(O)c(-c2ccc(O)c(O)c2)oc2cc(OCc3cccc([N+](=O)[O-])c3)cc(O)c12 [Compound 3m, 2-(3,4-Dihydroxyphenyl)-3,5-dihydroxy-7-((3-nitrobenzyl)oxy)-4H-chromen-4-one] | 15 ± 0.1 | 6.6 ± 1.1 | 2.3 | 264 to 266 |  |
| O=c1c(O)c(-c2ccc(O)c(O)c2)oc2cc(OCc3ccc(F)cc3)cc(O)c12 [Compound 3n, 2-(3,4-Dihydroxyphenyl)-7-((4-fluorobenzyl)oxy)-3,5-dihydroxy-4H-chromen-4-one] | 31.9 ± 3.4 | 5.1 ± 0.5 | 6.2 | 254 to 255 |  |
| O=c1c(O)c(-c2ccc(O)c(O)c2)oc2cc(OCc3ccc(Cl)cc3)cc(O)c12 [Compound 3o, 7-((4-Chlorobenzyl)oxy)-2-(3,4-dihydroxyphenyl)-3,5-dihydroxy-4H-chromen-4-one] | 15.1 ± 0.1 | 3.9 ± 0.3 | 3.9 | 266 to 267 |  |
| O=c1c(O)c(-c2ccc(O)c(O)c2)oc2cc(OCc3ccc(Br)cc3)cc(O)c12 [Compound 3p, 7-((4-Bromobenzyl)oxy)-2-(3,4-dihydroxyphenyl)-3,5-dihydroxy-4H-chromen-4-one] | 35.4 ± 1.6 | 5.5 ± 1.5 | 6.4 | 256 to 257 |  |
| Cc1ccc(COc2cc(O)c3c(=O)c(O)c(-c4ccc(O)c(O)c4)oc3c2)cc1 [Compound 3q, 2-(3,4-Dihydroxyphenyl)-3,5-dihydroxy-7-((4-methylbenzyl)oxy)-4H-chromen-4-one] | 15.9 ± 1 | 6.7 ± 1.4 | 2.4 | 261 to 264 |  |
| N#Cc1ccc(COc2cc(O)c3c(=O)c(O)c(-c4ccc(O)c(O)c4)oc3c2)cc1 [Compound 3r, 4-(((2-(3,4-Dihydroxyphenyl)-3,5-dihydroxy-4-oxo-4H-chromen-7-yl)oxy)methyl)benzonitrile] | 10.1 ± 0.1 | 6.2 ± 0.2 | 1.6 | 252 to 254 |  |
| O=c1c(O)c(-c2ccc(O)c(O)c2)oc2cc(OCc3ccc([N+](=O)[O-])cc3)cc(O)c12 [Compound 3s, 2-(3,4-Dihydroxyphenyl)-3,5-dihydroxy-7-((4-nitrobenzyl)oxy)-4H-chromen-4-one] | 19.6 ± 0.2 | 4.3 ± 0.2 | 4.5 | 253.5 to 254.5 |  |
| COc1c(-c2ccc(O)c(O)c2)oc2cc(O)cc(O)c2c1=O [Compound 12a, 2-(3,4-Dihydroxyphenyl)-5,7-dihydroxy-3-methoxy-4H-chromen-4-one] | > 50 | 11.2 ± 0.1 | >4.5 |  |  |
| O=c1c(OCCO)c(-c2ccc(O)c(O)c2)oc2cc(O)cc(O)c12 [Compound 12c, 2-(3,4-Dihydroxyphenyl)-5,7-dihydroxy-3-(2-hydroxyethoxy)-4H-chromen-4-one] | > 50 | 26.3 ± 3.1 | >1.9 |  |  |
